Legend:
Settings in all cases: Hit No
[1] = biological target: Uracil-DNA glycosylase (Homo sapiens) (UniProt P13051);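 further: UNG excision on a quenched double-stranded DNA oligo probe, with APE1 added for strand incision and turnover, read as fluorescence at 594 nm as strands separate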
Description: Inhibition of UNG by quantifying inhibition of UNG-mediated cleavage and dissociation of quenched duplex DNA oligonucleotides, measured as fluorescence at 594 nm. To generate a functional strand incision and increase turn-over this assay is coupled to APE1.

[2] = biological target: G/T mismatch-specific thymine DNA glycosylase (Homo sapiens) (UniProt Q13569);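 further: human TDG cleavage of quenched duplex DNA oligonucleotides coupled to APE1, strand release read as fluorescence at 594 nm, inhibition of TDG activity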
Description: Inhibition of TDG by quantifying inhibition of TDG-mediated cleavage and dissociation of quenched duplex DNA oligonucleotides, measured as fluorescence at 594 nm. To generate a functional strand incision and increase turn-over this assay is coupled to APE1.

[3] = biological target: T1, Endonuclease 8-like 2 (Homo sapiens) (UniProt Q969S2);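 further: fluorescence at 594 nm reports NEIL2 cutting and release of a quenched double-stranded DNA oligo substrate, reduced signal read as inhibition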
T1 sequence (whole entry): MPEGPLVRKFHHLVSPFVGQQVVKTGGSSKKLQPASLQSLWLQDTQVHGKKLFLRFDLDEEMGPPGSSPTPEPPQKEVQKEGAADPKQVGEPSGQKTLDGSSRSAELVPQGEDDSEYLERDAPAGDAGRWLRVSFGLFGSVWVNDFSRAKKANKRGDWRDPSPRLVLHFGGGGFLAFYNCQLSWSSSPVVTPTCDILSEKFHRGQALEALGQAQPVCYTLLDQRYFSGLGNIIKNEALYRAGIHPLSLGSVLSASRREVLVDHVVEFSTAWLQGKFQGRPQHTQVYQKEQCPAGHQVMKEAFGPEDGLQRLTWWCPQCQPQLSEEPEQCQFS
Description: Inhibition of NEIL2 by quantifying inhibition of NEIL2-mediated cleavage and dissociation of quenched duplex DNA oligonucleotides, measured as fluorescence at 594 nm.

[4] = biological target: N-glycosylase/DNA lyase (Homo sapiens) (UniProt O15527);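 further: OGG1 cleavage of a quenched duplex DNA oligonucleotide, coupled to APE1 for strand incision, read as fluorescence at 594 nm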
Description: Inhibition of OGG1 by quantifying inhibition of OGG1-mediated cleavage and dissociation of quenched duplex DNA oligonucleotides, measured as fluorescence at 594 nm. To generate a functional strand incision and increase turn-over this assay is coupled to APE1.

[5] = biological target: Endonuclease 8-like 1 (Homo sapiens) (UniProt Q96FI4);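 further: fluorescence at 594 nm from quenched duplex DNA oligonucleotides released by NEIL1 cleavage and strand separation, reported as reduction of this enzyme activity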
Description: Inhibition of NEIL1 by quantifying inhibition of NEIL1-mediated cleavage and dissociation of quenched duplex DNA oligonucleotides, measured as fluorescence at 594 nm.

[6] = biological target: T2, Adenine DNA glycosylase (Homo sapiens) (UniProt Q9UIF7);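 further: human MUTYH activity read as 594 nm fluorescence from cleavage and release of a quenched DNA duplex, coupled with APE1 for strand incision, lower signal meaning inhibition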
T2 sequence (whole entry): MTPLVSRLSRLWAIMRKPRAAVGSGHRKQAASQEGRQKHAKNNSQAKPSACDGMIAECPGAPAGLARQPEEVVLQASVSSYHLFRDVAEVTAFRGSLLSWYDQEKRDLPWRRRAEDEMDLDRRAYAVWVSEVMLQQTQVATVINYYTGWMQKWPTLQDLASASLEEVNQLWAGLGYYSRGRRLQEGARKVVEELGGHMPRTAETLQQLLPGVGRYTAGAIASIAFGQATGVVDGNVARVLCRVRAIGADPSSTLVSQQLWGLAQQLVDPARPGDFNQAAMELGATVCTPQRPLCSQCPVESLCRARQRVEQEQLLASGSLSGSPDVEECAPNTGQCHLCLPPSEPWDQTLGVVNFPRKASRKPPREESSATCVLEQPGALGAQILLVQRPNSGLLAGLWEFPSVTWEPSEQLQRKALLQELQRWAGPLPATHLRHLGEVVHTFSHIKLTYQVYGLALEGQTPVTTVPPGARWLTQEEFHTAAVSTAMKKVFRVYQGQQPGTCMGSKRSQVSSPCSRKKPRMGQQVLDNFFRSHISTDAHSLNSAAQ
Description: Inhibition of MUTYH by quantifying inhibition of MUTYH-mediated cleavage and dissociation of quenched duplex DNA oligonucleotides, measured as fluorescence at 594 nm. To generate a functional strand incision and increase turn-over this assay is coupled to APE1.

[7] = biological target: T3, Single-strand selective monofunctional uracil DNA glycosylase (Homo sapiens) (UniProt Q53HV7);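 further: enzymatic SMUG1 assay coupled with APE1, reading fluorescence at 594 nm released when a quenched double-stranded DNA oligonucleotide substrate is cleaved and separated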
T3 sequence (whole entry): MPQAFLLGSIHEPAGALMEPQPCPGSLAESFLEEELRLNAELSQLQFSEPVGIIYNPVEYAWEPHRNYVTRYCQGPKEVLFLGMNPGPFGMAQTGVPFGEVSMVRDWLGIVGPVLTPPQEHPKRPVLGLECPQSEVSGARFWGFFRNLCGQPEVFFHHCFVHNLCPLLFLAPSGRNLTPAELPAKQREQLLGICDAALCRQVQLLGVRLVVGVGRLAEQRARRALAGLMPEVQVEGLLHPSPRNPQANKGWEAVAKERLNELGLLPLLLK
Description: Inhibition of SMUG1 by quantifying inhibition of SMUG1-mediated cleavage and dissociation of quenched duplex DNA oligonucleotides, measured as fluorescence at 594 nm. To generate a functional strand incision and increase turn-over this assay is coupled to APE1.

[8] = biological target: Methyl-CpG-binding domain protein 4 (Homo sapiens) (UniProt O95243);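 further: MBD4 activity read as fluorescence at 594 nm from cleavage and release of a quenched duplex DNA oligonucleotide, with APE1 coupled to incise the strand and raise turnover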
Chain of Methyl-CpG-binding domain protein 4 (Homo sapiens) (O95243 whole entry, the tested form may be a part): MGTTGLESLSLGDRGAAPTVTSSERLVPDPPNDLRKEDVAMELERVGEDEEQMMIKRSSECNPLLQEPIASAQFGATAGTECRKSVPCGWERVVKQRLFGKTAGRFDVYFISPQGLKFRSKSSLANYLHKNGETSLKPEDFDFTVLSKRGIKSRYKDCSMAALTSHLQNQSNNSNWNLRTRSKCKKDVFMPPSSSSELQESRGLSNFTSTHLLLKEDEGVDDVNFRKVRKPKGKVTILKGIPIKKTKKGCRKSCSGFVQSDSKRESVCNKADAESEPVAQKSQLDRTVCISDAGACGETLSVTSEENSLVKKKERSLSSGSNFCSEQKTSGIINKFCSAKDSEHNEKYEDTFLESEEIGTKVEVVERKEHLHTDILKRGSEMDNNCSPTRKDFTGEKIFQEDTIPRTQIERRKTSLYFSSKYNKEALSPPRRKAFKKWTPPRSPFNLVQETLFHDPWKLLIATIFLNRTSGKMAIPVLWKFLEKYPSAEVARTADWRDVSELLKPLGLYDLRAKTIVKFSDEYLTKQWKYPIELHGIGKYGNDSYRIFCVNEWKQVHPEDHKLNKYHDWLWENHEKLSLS
Description: Inhibition of MBD4 by quantifying inhibition of MBD4-mediated cleavage and dissociation of quenched duplex DNA oligonucleotides, measured as fluorescence at 594 nm. To generate a functional strand incision and increase turn-over this assay is coupled to APE1.

Chain of N-glycosylase/DNA lyase (Homo sapiens) (O15527 whole entry): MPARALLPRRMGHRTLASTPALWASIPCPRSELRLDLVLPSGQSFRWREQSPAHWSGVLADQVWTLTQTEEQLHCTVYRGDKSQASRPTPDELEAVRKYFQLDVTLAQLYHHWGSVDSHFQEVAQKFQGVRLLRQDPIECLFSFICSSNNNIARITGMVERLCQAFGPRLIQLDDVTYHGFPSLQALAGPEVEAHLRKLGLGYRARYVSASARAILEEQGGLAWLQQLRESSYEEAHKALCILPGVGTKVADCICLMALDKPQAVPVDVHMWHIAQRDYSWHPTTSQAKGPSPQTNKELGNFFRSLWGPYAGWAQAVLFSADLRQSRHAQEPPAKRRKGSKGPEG
Chain of Endonuclease 8-like 1 (Homo sapiens) (Q96FI4 whole entry): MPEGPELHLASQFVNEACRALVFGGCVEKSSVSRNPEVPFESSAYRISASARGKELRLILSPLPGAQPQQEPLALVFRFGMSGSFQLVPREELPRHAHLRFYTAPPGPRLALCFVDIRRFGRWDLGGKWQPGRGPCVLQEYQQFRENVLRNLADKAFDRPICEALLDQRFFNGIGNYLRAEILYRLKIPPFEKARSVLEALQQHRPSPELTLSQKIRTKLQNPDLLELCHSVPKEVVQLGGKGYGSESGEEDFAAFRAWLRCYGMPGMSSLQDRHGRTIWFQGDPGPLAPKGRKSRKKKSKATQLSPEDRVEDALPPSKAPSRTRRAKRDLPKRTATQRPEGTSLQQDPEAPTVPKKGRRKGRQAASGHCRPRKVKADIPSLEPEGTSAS
Chain of Uracil-DNA glycosylase (Homo sapiens) (P13051 whole entry): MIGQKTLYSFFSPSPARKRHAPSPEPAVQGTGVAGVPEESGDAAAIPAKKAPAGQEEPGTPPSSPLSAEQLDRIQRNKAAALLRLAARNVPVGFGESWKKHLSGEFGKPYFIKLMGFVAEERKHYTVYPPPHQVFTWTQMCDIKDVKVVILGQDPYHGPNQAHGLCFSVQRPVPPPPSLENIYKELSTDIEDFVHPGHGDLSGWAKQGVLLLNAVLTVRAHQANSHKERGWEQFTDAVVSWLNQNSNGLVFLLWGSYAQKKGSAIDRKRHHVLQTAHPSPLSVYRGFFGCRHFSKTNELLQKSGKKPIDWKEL
Chain of G/T mismatch-specific thymine DNA glycosylase (Homo sapiens) (Q13569 whole entry): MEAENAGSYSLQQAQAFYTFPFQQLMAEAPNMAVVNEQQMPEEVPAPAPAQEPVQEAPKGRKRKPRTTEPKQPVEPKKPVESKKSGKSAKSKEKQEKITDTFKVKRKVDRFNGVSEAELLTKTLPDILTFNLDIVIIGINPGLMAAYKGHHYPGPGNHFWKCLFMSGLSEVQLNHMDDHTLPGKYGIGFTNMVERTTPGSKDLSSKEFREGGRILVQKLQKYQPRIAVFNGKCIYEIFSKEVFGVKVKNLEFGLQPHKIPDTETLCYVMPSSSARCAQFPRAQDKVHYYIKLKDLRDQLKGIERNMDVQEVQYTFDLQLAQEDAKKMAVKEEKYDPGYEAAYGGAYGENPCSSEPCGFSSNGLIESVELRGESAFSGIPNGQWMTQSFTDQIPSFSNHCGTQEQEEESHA

SMILES	inhibition ([1]; Compound Concentration 1.0 uM) [%]	inhibition ([2]; Compound Concentration 1.0 uM) [%]	inhibition ([3]; Compound Concentration 1.0 uM) [%]	inhibition ([4]; Compound Concentration 1.0 uM) [%]	inhibition ([5]; Compound Concentration 1.0 uM) [%]	inhibition ([6]; Compound Concentration 1.0 uM) [%]	inhibition ([7]; Compound Concentration 1.0 uM) [%]	inhibition ([8]; Compound Concentration 1.0 uM) [%]	inhibition ([1]; Compound Concentration 10.0 uM) [%]	inhibition ([2]; Compound Concentration 10.0 uM) [%]	inhibition ([3]; Compound Concentration 10.0 uM) [%]	inhibition ([4]; Compound Concentration 10.0 uM) [%]	inhibition ([5]; Compound Concentration 10.0 uM) [%]	inhibition ([6]; Compound Concentration 10.0 uM) [%]	inhibition ([7]; Compound Concentration 10.0 uM) [%]	inhibition ([8]; Compound Concentration 10.0 uM) [%]
Cc1nc(Cc2cccc(C(F)(F)F)c2)sc1-c1ccc(C(N)=O)nc1	-0.747	96.5	-3.29	0.0328	-5.59	-2.4	6	52	–	–	–	–	–	–	–	–
COc1cc(-c2cn([C@H]3CCc4c(F)cccc4N(CC(F)(F)F)C3=O)nn2)ccc1-n1cnc(C)c1	–	–	–	–	–	–	–	–	4.8	47.4	11.2	6.38	-9.83	0.879	19.7	40
O=C(Nc1ccc(C(O)(C(F)(F)F)C(F)(F)F)cc1)c1ccc(C(F)(F)F)cc1	–	–	–	–	–	–	–	–	11.1	98	-7.89	30.3	-5.59	3.77	23.5	54.8
CCC(C)N(C)C(=O)c1cc2ccccc2c(-c2ccccc2Cl)n1 (centres undefined)	–	–	–	–	–	–	–	–	7.72	99.2	3.59	15.1	-9.53	1.15	22.8	67
OCCOCCN1CCN(C(c2ccccc2)c2ccc(Cl)cc2)CC1 (centres undefined)	–	–	–	–	–	–	–	–	-3.83	3.31	-2.98	-2.03	4.39	-3.56	2.34	1.54
CC(=O)c1c(C)c2cnc(Nc3ccc(N4CCNCC4)cn3)nc2n(C2CCCC2)c1=O	3.08	39.5	2.12	4.49	8.59	37.5	19.2	-1.7	–	–	–	–	–	–	–	–
NS(=O)(=O)c1cc(NC(=O)Cc2ccccc2)ccc1Oc1cccc(Cl)c1	–	–	–	–	–	–	–	–	6.44	87.5	-2.53	16.9	-8.47	-0.214	25.9	54.5
CN1CCN(c2cnc3c(C4CCN(C(=O)c5ccc(OC(F)(F)F)cc5N)CC4)ncnc3c2)CC1	–	–	–	–	–	–	–	–	5.02	43.6	-8.19	-1.54	-2.58	2.58	11.7	22.6
COc1cc(Nc2ncc3c(n2)-c2ccc(Cl)cc2C(c2c(F)cccc2OC)=NC3)ccc1C(=O)O	-1.28	47.7	-9.46	4.44	-3.03	-7.52	19.5	19.9	–	–	–	–	–	–	–	–
COc1cc2ncn(-c3cc(OCc4ccccc4C(F)(F)F)c(C(N)=O)s3)c2cc1OC	3.27	35.1	-8.65	0.727	-7	-6.25	10.2	6.17	–	–	–	–	–	–	–	–
N[C@@H]1CCCN(c2c(/C=C3\SC(=O)NC3=O)cccc2-c2ccccc2)C1	7.16	64.1	1.04	16.9	-5.54	3.22	28.4	5.7	–	–	–	–	–	–	–	–
CC[C@H](CO)Nc1nc(NCc2ccccc2)c2ncn(C(C)C)c2n1	–	–	–	–	–	–	–	–	0.726	38.4	-5.42	-9.3	6.48	-2.91	-5.13	-1.52
CCN(Cc1ccc(Cl)cc1)c1ncc(C(=O)NCCCN2CCCC2=O)c(NC2CCCC2)n1	–	–	–	–	–	–	–	–	8.58	63.4	-8.65	-2.04	-2.37	3.34	17.5	-8.97

Reference: ChEMBL document CHEMBL5665443, “Enzyme Inhibitor Single Concentration assay results for EUbOPEN Chemogenomics Library” (2024)
